US20220267289A1, “SELECTIVE BCRP/ABCG2 TRANSPORTER INHIBITORS AS AGENTS TO ABOLISH RESISTANCE TO ANTI-CANCER AGENTS” (UNIVERSITE GRENOBLE ALPES, priority 2019, published 2022)
Read-outs that look alike come from different tables or passages of the source.

What was measured:
[1] = molecular target: T1, BCRP/ABCG2 (Homo sapiens, UniProt Q9UNQ0); experiment: BCRP-mediated mitoxantrone efflux inhibition, ABCG2-transfected HEK293 cells, flow cytometry; conditions: for inhibition at 30 min, 1 μM / inhibition at 30 min, 10 μM / inhibition at 30 min, 1 µM: human, probe mitoxantrone (MX), 4 μM
T1 sequence (Q9UNQ0 1-655): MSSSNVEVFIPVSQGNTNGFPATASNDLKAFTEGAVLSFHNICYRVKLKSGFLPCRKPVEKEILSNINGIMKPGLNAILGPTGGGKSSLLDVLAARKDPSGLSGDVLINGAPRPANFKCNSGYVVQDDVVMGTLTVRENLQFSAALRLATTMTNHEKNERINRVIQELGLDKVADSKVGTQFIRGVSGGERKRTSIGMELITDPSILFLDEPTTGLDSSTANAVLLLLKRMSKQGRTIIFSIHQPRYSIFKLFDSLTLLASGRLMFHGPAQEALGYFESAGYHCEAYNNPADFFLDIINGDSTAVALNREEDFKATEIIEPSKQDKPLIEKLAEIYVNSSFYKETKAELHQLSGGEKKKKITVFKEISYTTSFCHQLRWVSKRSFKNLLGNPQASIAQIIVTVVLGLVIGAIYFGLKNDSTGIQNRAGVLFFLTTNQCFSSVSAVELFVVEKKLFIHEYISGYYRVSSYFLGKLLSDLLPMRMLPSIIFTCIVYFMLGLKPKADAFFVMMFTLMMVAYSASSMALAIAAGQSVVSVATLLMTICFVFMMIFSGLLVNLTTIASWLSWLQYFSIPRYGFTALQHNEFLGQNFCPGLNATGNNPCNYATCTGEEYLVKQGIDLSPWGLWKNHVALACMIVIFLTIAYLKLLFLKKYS
Procedure: The cells were seeded in 96-well plates at a density of 5×10^4 cells/well in 200 μL of medium and incubated overnight. Then the growth medium was changed to fresh medium containing the compounds and in the presence of 4 μM MX as a fluorescent probe for BCRP-mediated efflux at a final concentration of 0.5% (v/v) DMSO. After 30 min incubation at 37° C., the medium was removed, and the cells were washed with 100 μL of Dulbecco's phosphate-buffered saline (DPBS) followed by dissociation of the cells for 5 min at 37° C. mediated by 25 μL trypsin. Finally, trypsin was neutralised with 175 μL of DPBS ice-cold with 2% bovine serum albumin (BSA) and the cells were carefully resuspended. As a selectivity assay, the same experiment was performed for P-gp and MRP1-mediated efflux with 0.5 μM R123 or 0.2 μM cAM as respective fluorescent substrates instead of MX.
Intracellular fluorescence was measured with a MacsQUANT VRB Analyzer flow cytometer (Miltenyi Biotec) with at least 5000 events recorded. While MX was excited at 635 nm and the fluorescence emission recorded in a 655-730 nm window, R123 and cAM were excited at 488 nm and recorded in a 525/50 nm filter. The compound inhibition yield was estimated by the following equation:
where G2FA is the fluorescence emission (a.u.) of accumulated fluorophore in cells expressing the efflux pump incubated with a fluorescent substrate and the test compound. G2FBG is the resulting background fluorescence emission (a.u.) in cells transfected with ABCG2 (no substrate or test compound). G2S is the fluorescence emission (a.u.) of accumulated fluorophore in cells expressing the efflux pump incubated with substrate only. HEKFA is the fluorescence emission (a.u.) of accumulated fluorophore in control cells incubated with the substrate and test compound. HEKFBG is the resulting background fluorescence emission (a.u.) in control cells (no substrate or test compound). All values are given as the geometric mean fluorescence emission (a.u.) in a 655-730 nm filter (635 nm excitation) measured over 5000 events. The tests were performed in triplicate.

[2] = molecular target: T2, P-gp (ABCB1) (Homo sapiens, UniProt P08183); experiment: P-gp-mediated rhodamine 123 efflux inhibition (selectivity assay), ABCB1-transfected NIH/3T3 cells; assay type: cell-based; conditions: probe rhodamine 123 (R123), 0.5 μM R123; for inhibition at 30 min, 1 μM: [Inhibitor] 1 μM; for inhibition at 30 min, 10 μM: [Inhibitor] 10 μM
T2 construct: expressed in transfected cells; host or cells: NIH/3T3
Procedure: (§1) The tests were performed in triplicate.

[3] = molecular target: T3, MRP1 (ABCC1) (Homo sapiens, UniProt P33527); experiment: MRP1-mediated calcein-AM efflux inhibition (selectivity assay), ABCC1-transfected Flp-In 293 cells; assay type: cell-based; conditions: probe calcein-AM (cAM), 0.2 μM cAM; for inhibition at 30 min, 1 μM: [Inhibitor] 1 μM; for inhibition at 30 min, 10 μM: [Inhibitor] 10 μM
T3 construct: expressed in transfected cells; host or cells: Flp-In 293
Procedure: as §1

[4] = hydrolysis of tertiary butyl ester to inactive metabolite; cited from earlier work

T2 sequence (P08183 whole entry): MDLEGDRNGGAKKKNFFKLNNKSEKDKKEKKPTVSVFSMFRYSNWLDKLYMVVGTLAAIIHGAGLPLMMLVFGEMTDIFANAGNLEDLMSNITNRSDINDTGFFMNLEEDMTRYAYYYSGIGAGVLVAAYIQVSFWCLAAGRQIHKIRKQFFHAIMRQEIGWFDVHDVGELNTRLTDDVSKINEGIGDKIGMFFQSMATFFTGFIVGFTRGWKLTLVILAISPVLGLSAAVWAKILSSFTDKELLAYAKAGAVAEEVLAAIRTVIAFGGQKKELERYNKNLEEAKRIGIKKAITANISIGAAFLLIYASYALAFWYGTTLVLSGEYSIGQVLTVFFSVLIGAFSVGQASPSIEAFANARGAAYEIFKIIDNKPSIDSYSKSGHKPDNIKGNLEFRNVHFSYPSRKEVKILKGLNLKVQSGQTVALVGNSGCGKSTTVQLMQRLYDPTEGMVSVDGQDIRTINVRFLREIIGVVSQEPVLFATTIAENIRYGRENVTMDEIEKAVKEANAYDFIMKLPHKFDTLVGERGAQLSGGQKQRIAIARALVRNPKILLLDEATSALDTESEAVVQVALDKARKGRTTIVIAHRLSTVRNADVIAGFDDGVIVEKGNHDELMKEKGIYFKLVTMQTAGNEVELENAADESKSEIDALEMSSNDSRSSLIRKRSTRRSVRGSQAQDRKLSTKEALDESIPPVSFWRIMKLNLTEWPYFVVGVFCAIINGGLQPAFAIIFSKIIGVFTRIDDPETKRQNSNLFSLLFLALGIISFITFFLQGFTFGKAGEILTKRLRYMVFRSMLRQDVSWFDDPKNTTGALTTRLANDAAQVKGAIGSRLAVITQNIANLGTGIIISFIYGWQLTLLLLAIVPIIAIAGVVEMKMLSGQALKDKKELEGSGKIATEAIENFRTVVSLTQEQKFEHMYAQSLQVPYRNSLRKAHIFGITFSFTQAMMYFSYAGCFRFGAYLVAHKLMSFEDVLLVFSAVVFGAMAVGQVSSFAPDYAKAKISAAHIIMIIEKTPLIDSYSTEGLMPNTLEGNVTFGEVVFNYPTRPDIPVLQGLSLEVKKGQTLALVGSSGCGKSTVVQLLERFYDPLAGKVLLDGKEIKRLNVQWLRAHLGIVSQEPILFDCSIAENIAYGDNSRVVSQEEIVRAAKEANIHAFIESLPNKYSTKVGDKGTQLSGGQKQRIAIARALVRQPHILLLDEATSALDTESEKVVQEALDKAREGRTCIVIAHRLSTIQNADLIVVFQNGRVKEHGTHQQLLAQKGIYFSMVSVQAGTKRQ
T3 sequence (P33527 whole entry): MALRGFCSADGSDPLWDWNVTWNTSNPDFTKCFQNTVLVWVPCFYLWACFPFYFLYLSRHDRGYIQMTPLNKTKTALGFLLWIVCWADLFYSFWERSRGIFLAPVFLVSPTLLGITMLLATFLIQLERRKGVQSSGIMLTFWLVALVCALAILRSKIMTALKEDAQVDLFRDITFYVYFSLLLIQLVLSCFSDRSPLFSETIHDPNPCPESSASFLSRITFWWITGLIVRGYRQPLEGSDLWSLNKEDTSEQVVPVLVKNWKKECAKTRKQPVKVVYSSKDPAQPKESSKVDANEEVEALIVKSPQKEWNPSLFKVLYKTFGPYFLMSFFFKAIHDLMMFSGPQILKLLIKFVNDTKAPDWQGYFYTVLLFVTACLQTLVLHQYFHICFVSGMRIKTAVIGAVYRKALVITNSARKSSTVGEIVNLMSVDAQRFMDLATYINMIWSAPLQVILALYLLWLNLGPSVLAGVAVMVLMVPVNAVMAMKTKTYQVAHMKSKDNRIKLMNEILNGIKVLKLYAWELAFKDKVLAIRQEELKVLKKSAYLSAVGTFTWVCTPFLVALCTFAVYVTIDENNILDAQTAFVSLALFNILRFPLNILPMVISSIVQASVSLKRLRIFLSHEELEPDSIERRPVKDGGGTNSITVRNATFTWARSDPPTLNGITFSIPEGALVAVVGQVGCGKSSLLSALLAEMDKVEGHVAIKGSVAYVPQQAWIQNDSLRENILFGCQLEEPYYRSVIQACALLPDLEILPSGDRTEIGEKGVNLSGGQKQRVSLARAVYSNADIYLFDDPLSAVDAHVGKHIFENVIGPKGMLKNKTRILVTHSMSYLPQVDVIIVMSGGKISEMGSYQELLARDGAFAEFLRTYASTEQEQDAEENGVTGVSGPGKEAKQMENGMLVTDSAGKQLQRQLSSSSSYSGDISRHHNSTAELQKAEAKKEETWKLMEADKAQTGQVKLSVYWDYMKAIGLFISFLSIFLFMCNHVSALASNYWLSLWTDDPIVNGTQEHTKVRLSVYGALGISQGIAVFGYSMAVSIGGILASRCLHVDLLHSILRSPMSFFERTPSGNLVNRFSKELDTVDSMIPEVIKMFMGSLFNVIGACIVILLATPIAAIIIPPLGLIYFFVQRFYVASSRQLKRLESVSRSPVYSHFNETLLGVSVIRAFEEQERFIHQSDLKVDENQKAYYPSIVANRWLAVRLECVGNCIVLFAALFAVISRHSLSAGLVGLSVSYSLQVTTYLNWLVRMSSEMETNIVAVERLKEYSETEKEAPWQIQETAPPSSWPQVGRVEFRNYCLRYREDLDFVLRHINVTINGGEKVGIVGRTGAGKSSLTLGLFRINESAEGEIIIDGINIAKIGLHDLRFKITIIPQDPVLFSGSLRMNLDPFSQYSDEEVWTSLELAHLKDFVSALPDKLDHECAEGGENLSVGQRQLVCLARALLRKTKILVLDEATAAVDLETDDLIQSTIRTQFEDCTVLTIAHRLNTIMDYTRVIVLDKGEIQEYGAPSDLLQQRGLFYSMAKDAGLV

Row | SMILES | melting point [°C] | inhibition at 30 min, 1 μM [2] [%] | inhibition at 30 min, 10 μM [2] [%] | inhibition at 30 min, 1 μM [3] [%] | inhibition at 30 min, 10 μM [3] [%] | IC50 [1] [nM] | inhibition at 30 min, 1 μM [1] [%] | inhibition at 30 min, 10 μM [1] [%] | IC50 ([1]; ABCG2 inhibition, Table 2) [nM] | inhibition at 30 min, 1 µM [1] [%] | rapidly metabolised, time [4] [min]
1 | COC(=O)[C@H](Cc1ccccc1)NC(=O)c1cc(=O)c2c(OCc3ccc(Br)cc3)cccc2o1 [5f (series 1), methyl (5-((4-bromobenzyl)oxy)-4-oxo-4H-chromene-2-carbonylamino)-L-phenylalaninate] | – | 6.4 ± 1.5 | 6.8 ± 1.4 | 23 | 19 | – | – | – | – | – | –
2 | COc1ccc2[nH]cc(CCNC(=O)c3cc(=O)c4c(OCc5ccc(Br)cc5)cccc4o3)c2c1 [MBL-II-141, reference compound] | – | – | – | – | – | – | – | – | 130 ± 90 | – | –
3 | COC(=O)[C@H](Cc1c[nH]c2ccccc12)NC(=O)c1cc(=O)c2c(OCc3ccc(Br)cc3)cccc2o1 [5h (series 1), methyl (5-((4-bromobenzyl)oxy)-4-oxo-4H-chromene-2-carbonylamino)-L-tryptophanate] | 235.3 to 236.2 | 7.4 ± 2.5 | 6.6 ± 1.4 | 10.3 | 17.4 | 480 ± 70 | 92 ± 15 | 87.7 ± 12 | – | 96.4 | –
4 | COc1ccc2[nH]cc(CCNC(=O)c3cc(=O)c4c(OCc5ccc(Br)cc5Br)cccc4o3)c2c1 [7a (series 3), 5-((2,4-dibromobenzyl)oxy)-N-(2-(5-methoxy-1H-indol-3-yl)ethyl)-4-oxo-4H-chromene-2-carboxamide] | – | – | – | – | – | 50 ± 10 | – | – | – | – | –
5 | CCC(C)[C@H](NC(=O)c1cc(=O)c2c(OCc3ccc(Br)cc3)cccc2o1)C(=O)OC (stereo partly shown) [5b (series 1)] | – | – | – | – | – | 590 ± 80 | – | 115 ± 14 | – | – | –
6 | COC(=O)[C@@H](Cc1c[nH]c2ccccc12)NC(=O)c1cc(=O)c2c(OCc3ccc(Br)cc3)cccc2o1 [5i (series 1), methyl (5-((4-bromobenzyl)oxy)-4-oxo-4H-chromene-2-carbonylamino)-D-tryptophanate] | 236.2 to 237.9 | 7.2 ± 1.3 | 6.1 ± 1.1 | 11.9 | 12.6 | 290 ± 50 | 85 ± 12 | 96.3 ± 19 | – | 84.8 | –
7 | O=C(N[C@H](Cc1c[nH]c2ccccc12)C(=O)O)c1cc(=O)c2c(OCc3ccc(Br)cc3)cccc2o1 [6e (series 1), (5-((4-bromobenzyl)oxy)-4-oxo-4H-chromene-2-carbonylamino)-D-tryptophan] | 185.5 to 186.7 | – | – | – | – | – | 6.1 ± 0.6 | 11.2 ± 2 | – | – | –
8 | O=C(N[C@@H](Cc1ccccc1)C(=O)O)c1cc(=O)c2c(OCc3ccc(Br)cc3)cccc2o1 [6d (series 1), (5-((4-bromobenzyl)oxy)-4-oxo-4H-chromene-2-carbonylamino)-L-phenylalanine] | – | – | – | – | – | – | 4 ± 0.7 | 6.5 | – | – | –
9 | COc1ccc2c3c([nH]c2c1)[C@H](CC(C)C)N1C(=O)[C@H](CCC(=O)OC(C)(C)C)NC(=O)[C@@H]1C3 [Ko143] | – | – | – | – | – | – | – | – | – | – | 60
10 | COc1ccc2[nH]cc(CCNC(=O)c3cc(=O)c4c(OCc5cc(Br)cc(Br)c5)cccc4o3)c2c1 [7b (series 3), ((3,5-dibromobenzyl)oxy)-N-(2-(5-methoxy-1H-indol-3-yl)ethyl)-4-oxo-4H-chromene-2-carboxamide] | – | – | – | – | – | – | – | – | 100 ± 10 | – | –

More lines, main results first:

Row | melting point [°C] | inhibition at 30 min, 1 μM [2] [%] | inhibition at 30 min, 10 μM [2] [%] | inhibition at 30 min, 1 μM [3] [%] | inhibition at 30 min, 10 μM [3] [%] | SMILES | IC50 [1] [nM] | inhibition at 30 min, 1 μM [1] [%] | inhibition at 30 min, 10 μM [1] [%] | IC50 ([1]; ABCG2 inhibition, Table 2) [nM] | inhibition at 30 min, 1 µM [1] [%] | rapidly metabolised, time [4] [min]
11 | 123.1 to 125.7 | – | – | – | – | CCC(C)[C@H](NC(=O)c1cc(=O)c2c(OCc3ccccc3Br)cccc2o1)C(=O)OC (stereo partly shown) [5a (series 1)] | 100 ± 10 | 78 ± 9 | 143 ± 22 | – | – | –
12 | – | 7.7 ± 1.9 | 7.1 ± 0.6 | 21.9 ± 4.6 | 20.6 ± 1.2 | CC[C@@H](C)[C@H](NC(=O)c1cc(=O)c2c(OCc3ccc(Br)cc3)cccc2o1)C(=O)O [6b (series 1), (5-((4-bromobenzyl)oxy)-4-oxo-4H-chromene-2-carbonyl)-L-alloisoleucine] | – | – | – | – | – | –
13 | 250 to 252.8 | 7.4 ± 0.3 | 5.3 ± 0.5 | 23 ± 2.5 | 16 ± 2.5 | COC(=O)[C@H](Cc1c[nH]c2ccccc12)NC(=O)c1cc(=O)c2c(OCc3ccccc3Br)cccc2o1 [5g (series 1), methyl (5-((2-bromobenzyl)oxy)-4-oxo-4H-chromene-2-carbonylamino)-L-tryptophanate] | – | 93.7 ± 17 | 39.7 ± 3.7 | – | 93.7 | –
14 | 127 to 128.2 | 7.9 ± 0.7 | 6.5 ± 1.9 | 12.6 ± 1.3 | 17.8 ± 0.9 | COC(=O)[C@@H](NC(=O)c1cc(=O)c2c(OCc3ccccc3Br)cccc2o1)C(C)C [5d (series 1), methyl (5-((2-bromobenzyl)oxy)-4-oxo-4H-chromene-2-carbonylamino)-L-valinate] | 50 ± 30 | 87 ± 7 | 148 ± 6.7 | – | 86.6 | –
15 | – | 1.7 ± 2.4 | 2.4 ± 0.5 | 10.3 ± 0.7 | – | CC[C@@H](C)[C@H](NC(=O)c1cc(=O)c2c(OCc3ccccc3Br)cccc2o1)C(=O)N[C@@H](CC(C)C)C(=O)OC [7b (series 2)] | 70 ± 10 | – | – | – | 82.5 ± 9.7 | –
16 | 242.8 to 243.7 | 7.8 | 7.9 ± 2.3 | 17.1 | 13.1 ± 2.4 | CCC(C)[C@H](NC(=O)c1cc(=O)c2c(OCc3ccccc3Br)cccc2o1)C(=O)O (stereo partly drawn) [6a (series 1), (5-((2-bromobenzyl)oxy)-4-oxo-4H-chromene-2-carbonylamino)-L-alloisoleucine] | – | 0 | 1.6 ± 3.1 | – | – | –
17 | – | 0.1 | 0.2 | 11.1 ± 0.8 | 10.8 ± 2.8 | CC[C@@H](C)[C@H](NC(=O)c1cc(=O)c2c(OCc3ccccc3Br)cccc2o1)C(=O)N[C@H](C(=O)OC)C(C)C [7a (series 2)] | 70 ± 10 | – | – | – | 84.8 ± 7.4 | –
18 | – | 2.4 ± 2.1 | 10.6 ± 0.3 | 11.5 ± 0.4 | 15.3 ± 1.5 | CC[C@@H](C)[C@H](NC(=O)c1cc(=O)c2c(OCc3ccc(Br)cc3)cccc2o1)C(=O)N[C@H](C(=O)OC)C(C)C [7c (series 2)] | 250 ± 100 | – | – | – | 72.4 ± 7.1 | –
19 | 60.3 to 60.4 | 7 ± 1.1 | 4.8 ± 0.7 | 20.2 ± 2.7 | 19.2 ± 2.2 | COC(=O)[C@H](CC(C)C)NC(=O)c1cc(=O)c2c(OCc3ccccc3Br)cccc2o1 [5c (series 1), methyl (5-((2-bromobenzyl)oxy)-4-oxo-4H-chromene-2-carbonylamino)-L-leucinate] | 140 ± 40 | 115 ± 17 | 102 ± 21.7 | – | 114 | –
20 | – | 3.6 ± 0.2 | 5.9 ± 0.1 | 10.9 ± 1.4 | 14.7 ± 1 | CC[C@@H](C)[C@H](NC(=O)c1cc(=O)c2c(OCc3ccc(Br)cc3)cccc2o1)C(=O)N[C@@H](CC(C)C)C(=O)OC [7d (series 2), methyl (5-((4-bromobenzyl)oxy)-4-oxo-4H-chromene-2-carbonylamino)-L-alloisoleucyl-L-leucinate] | 110 ± 30 | – | – | – | 52.3 ± 5.1 | –
